Reference: the supplement of paper PMC10307832

Legend:
Assay in all cases: relative viability (nuclei count vs DMSO), 5 days (fraction); higher = more cells survive
PC-3 [JPC-3] = test system: PC-3 [JPC-3]
Outline: (§1)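 Relative viability divides the nuclei count in treated wells by that in vehicle wells. Lung cancer cell lines were seeded in 1536-well plates, dosed by pin tool the next day, and fixed and stained after 5 days in one step with final 0.05% Triton X-100, 1% formaldehyde and 1 ug/ml Hoechst. Dosing was a single drug or a fixed anchor-drug dose plus five library-drug doses (not always all listed) in √10 steps, and values are medians of duplicate plates imaged at 4×.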

NCI-H1915 = test system: NCI-H1915
Outline: as §1

NCI-H661 = test system: NCI-H661
Outline: as §1

201T = test system: 201T
Outline: as §1

CAL-12T = test system: CAL-12T
Outline: as §1

NCI-H2087 = test system: NCI-H2087
Outline: as §1

NCI-H2023 = test system: NCI-H2023
Outline: as §1

NCI-H1792 = test system: NCI-H1792
Outline: as §1

NCI-H650 = test system: NCI-H650
Outline: as §1

BEN = test system: BEN
Outline: as §1

LCLC-97TM1 = test system: LCLC-97TM1
Outline: as §1

NCI-H727 = test system: NCI-H727
Outline: as §1

NCI-H520 = test system: NCI-H520
Outline: as §1

H3255 = test system: H3255
Outline: as §1

ABC-1 = test system: ABC-1
Outline: as §1

NCI-H1944 = test system: NCI-H1944
Outline: as §1

NCI-H460 = test system: NCI-H460
Outline: as §1

A-427 = test system: A-427
Outline: as §1

NCI-H1651 = test system: NCI-H1651
Outline: as §1

NCI-H596 = test system: NCI-H596
Outline: as §1

NCI-H441 = test system: NCI-H441
Outline: as §1

LC-2-ad = test system: LC-2-ad
Outline: as §1

Compound: O=C(O)c1ccc(-c2c[nH]c3ncc(-c4ccccc4)cc23)cc1C1CCCC1 + C[C@]1(O)C[C@@H](c2nc(-c3ccc4ccc(-c5ccccc5)nc4c3)c3c(N)nccn32)C1 [Linsitinib] (partner 1 µM)
- relative viability (PC-3 [JPC-3]; first compound 0.04 µM): 0.915
- relative viability (PC-3 [JPC-3]; first compound 0.1265 µM): 0.986
- relative viability (PC-3 [JPC-3]; first compound 0.4 µM): 0.943
- relative viability (PC-3 [JPC-3]; first compound 1.265 µM): 0.788
- relative viability (NCI-H1915; first compound 0.04 µM): 1.06
- relative viability (NCI-H1915; first compound 0.1265 µM): 1.1
- relative viability (NCI-H1915; first compound 0.4 µM): 0.946
- relative viability (NCI-H1915; first compound 1.265 µM): 0.799
- relative viability (NCI-H661; first compound 0.04 µM): 0.576
- relative viability (NCI-H661; first compound 0.1265 µM): 0.603
- relative viability (NCI-H661; first compound 0.4 µM): 0.572
- relative viability (NCI-H661; first compound 1.265 µM): 0.736
- relative viability (201T; first compound 0.04 µM): 1.07
- relative viability (201T; first compound 0.1265 µM): 1.06
- relative viability (201T; first compound 0.4 µM): 0.979
- relative viability (201T; first compound 1.265 µM): 0.946
- relative viability (CAL-12T; first compound 0.04 µM): 0.799
- relative viability (CAL-12T; first compound 0.1265 µM): 0.834
- relative viability (CAL-12T; first compound 0.4 µM): 0.963
- relative viability (CAL-12T; first compound 1.265 µM): 0.6
- relative viability (NCI-H2087; first compound 0.04 µM): 0.959
- relative viability (NCI-H2087; first compound 0.1265 µM): 1.03
- relative viability (NCI-H2087; first compound 0.4 µM): 0.97
- relative viability (NCI-H2087; first compound 1.265 µM): 0.859
- relative viability (NCI-H2023; first compound 0.04 µM): 0.699
- relative viability (NCI-H2023; first compound 0.1265 µM): 0.665
- relative viability (NCI-H2023; first compound 0.4 µM): 0.734
- relative viability (NCI-H2023; first compound 1.265 µM): 0.676
- relative viability (NCI-H1792; first compound 0.04 µM): 0.577
- relative viability (NCI-H1792; first compound 0.1265 µM): 0.727
- relative viability (NCI-H1792; first compound 0.4 µM): 0.56
- relative viability (NCI-H1792; first compound 1.265 µM): 0.558
- relative viability (NCI-H650; first compound 0.04 µM): 0.844
- relative viability (NCI-H650; first compound 0.1265 µM): 1.04
- relative viability (NCI-H650; first compound 0.4 µM): 0.861
- relative viability (NCI-H650; first compound 1.265 µM): 0.679
- relative viability (BEN; first compound 0.04 µM): 1.03
- relative viability (BEN; first compound 0.1265 µM): 1.03
- relative viability (BEN; first compound 0.4 µM): 0.931
- relative viability (BEN; first compound 1.265 µM): 0.859
- relative viability (LCLC-97TM1; first compound 0.04 µM): 0.204
- relative viability (LCLC-97TM1; first compound 0.1265 µM): 0.218
- relative viability (LCLC-97TM1; first compound 0.4 µM): 0.175
- relative viability (LCLC-97TM1; first compound 1.265 µM): 0.166
- relative viability (NCI-H727; first compound 0.04 µM): 0.381
- relative viability (NCI-H727; first compound 0.1265 µM): 0.361
- relative viability (NCI-H727; first compound 0.4 µM): 0.243
- relative viability (NCI-H727; first compound 1.265 µM): 0.294
- relative viability (NCI-H520; first compound 0.04 µM): 0.833
- relative viability (NCI-H520; first compound 0.1265 µM): 1.13
- relative viability (NCI-H520; first compound 0.4 µM): 0.904
- relative viability (NCI-H520; first compound 1.265 µM): 0.712
- relative viability (H3255; first compound 0.04 µM): 1
- relative viability (H3255; first compound 0.1265 µM): 0.994
- relative viability (H3255; first compound 0.4 µM): 0.935
- relative viability (H3255; first compound 1.265 µM): 0.909
- relative viability (ABC-1; first compound 0.04 µM): 0.753
- relative viability (ABC-1; first compound 0.1265 µM): 0.808
- relative viability (ABC-1; first compound 0.4 µM): 0.962
- relative viability (ABC-1; first compound 1.265 µM): 0.716
- relative viability (NCI-H1944; first compound 0.04 µM): 1.18
- relative viability (NCI-H1944; first compound 0.1265 µM): 1.39
- relative viability (NCI-H1944; first compound 0.4 µM): 1.04
- relative viability (NCI-H1944; first compound 1.265 µM): 1.02
- relative viability (NCI-H460; first compound 0.04 µM): 0.783
- relative viability (NCI-H460; first compound 0.1265 µM): 0.989
- relative viability (NCI-H460; first compound 0.4 µM): 0.753
- relative viability (NCI-H460; first compound 1.265 µM): 0.662
- relative viability (A-427; first compound 0.04 µM): 1.14
- relative viability (A-427; first compound 0.1265 µM): 1.1
- relative viability (A-427; first compound 0.4 µM): 1.05
- relative viability (A-427; first compound 1.265 µM): 0.865
- relative viability (NCI-H1651; first compound 0.04 µM): 0.997
- relative viability (NCI-H1651; first compound 0.1265 µM): 0.968
- relative viability (NCI-H1651; first compound 0.4 µM): 0.912
- relative viability (NCI-H1651; first compound 1.265 µM): 0.781
- relative viability (NCI-H596; first compound 0.04 µM): 0.974
- relative viability (NCI-H596; first compound 0.1265 µM): 1.05
- relative viability (NCI-H596; first compound 0.4 µM): 1.19
- relative viability (NCI-H596; first compound 1.265 µM): 1.03
- relative viability (NCI-H441; first compound 0.04 µM): 0.666
- relative viability (NCI-H441; first compound 0.1265 µM): 0.674
- relative viability (NCI-H441; first compound 0.4 µM): 0.563
- relative viability (NCI-H441; first compound 1.265 µM): 0.531
- relative viability (LC-2-ad; first compound 0.04 µM): 0.81
- relative viability (LC-2-ad; first compound 0.1265 µM): 0.885
- relative viability (LC-2-ad; first compound 0.4 µM): 0.775
- relative viability (LC-2-ad; first compound 1.265 µM): 0.425
